# Source: patent US7666996B2, “Casein derived peptides and uses thereof” (priority 2000, dated 2010)
# Experiments:
# [1] = tested on: Non-Obese Diabetic (NOD) mice; experiment: Intraperitoneal Glucose Tolerance Test (IPGTT) in NOD mice; format: in vivo; conditions: individual healthy NOD mice, 25 weeks after peptides; for IPGT TEST 60 min. post load plasma glucose: 60 min after i.p. glucose 1 g/kg; for IPGT TEST 0 min. (pre-load) plasma glucose: before glucose load
# Protocol: Intraperitoneal Glucose Tolerance Test (IPGTT): The glucose tolerance test is the definitive method for investigating glucose metabolism and diabetic tendencies in mammals. Twenty five (25) weeks after receiving Synthetic peptides derived from casein, response to a glucose load was assessed with an intraperitoneal glucose tolerance test. Glucose injection consisted of 1 g/kg body weight. Glycemic values were determined from blood drawn prior to test (0 minutes) and 60 minutes after loading.
# [2] = tested on: Non-Obese Diabetic (NOD) mice; experiment: Glucosuria in Non-Obese Diabetic (NOD) mice; format: in vivo; conditions: for Healthy/Total (sugar not detected in urine): female NOD mice, 100 μg synthetic peptide once weekly for 5 weeks, evaluated after 25 weeks; for Urine Sugar: individual healthy NOD mice, after 25 weeks; for prevention of glucosuria (in words): 100 μg once weekly for 5 weeks, 25 weeks
# Protocol: Juvenile (Type I, IDDM) diabetes in Non-Obese Diabetic (NOD) mice:
# Peptides derived from natural casein: NOD mice are a commonly used model for research of autoimmune disease and human Juvenile Diabetes. Six week old female NOD mice received either one or two injections per week of 100 μg of peptides derived from natural casein, for a total of 5 or 10 treatments. Control mice received no treatment. The severity of disease was determined according to glucosuria, which was measured using Combi test sticks [Gross, D. J. et al (1994), Diabetology, 37:1195]. Results were expressed as the percent of glucosuria-free mice in each sample over a 365-day period.
# Synthetic peptides derived from casein: In another experiment, 6 week old female NOD mice received one injection per week of 100 μg of Synthetic peptides derived from casein for a total of 5 treatments. Control mice received no treatment. Results were expressed as the number of healthy mice in the various treated groups.
# [3] = tested on: irradiated, bone marrow transplanted mice; experiment: Leukocyte and platelet reconstitution in bone marrow transplant recipient mice; format: in vivo; conditions: for white blood cell reconstitution (in words): F1 mice, 750 cGy, 1 mg i.v., days 5 and 7 post-reconstitution
# Protocol: Leukocyte and platelet reconstitution in bone marrow transplant recipient Mice: BALB/c mice were sub-lethally irradiated at a source to skin distance of 70 cm, dosage of 50 cGy per minute, for a total of 600 cGy. The irradiated mice were […] casein, synthetic peptides derived from casein (13-26 amino acids, see Table 3 above), or human serum albumin (controls), following a double-blinded protocol. Leukocyte reconstitution was determined according to cell count in peripheral blood collected at indicated intervals from 6 to 12 days post treatment. Platelet reconstitution was determined by cell count in blood collected from the retro orbital plexus, into EDTA-containing vials, at indicated intervals from day 6 to day 15 post treatment. […]
# In a third series of experiments, the mice were irradiated (800 cGy), reconstituted and injected intraperitoneally with 1.0 mg synthetic peptides derived from casein (peptides 3a and 4P, representing the first 6 and 12 amino acids of the N terminus of αS1 casein, respectively—see Table 3 above) daily, on days 4, 5, 6 and 7 post-transplantation. Platelet reconstitution was assayed at 10 and 12 days post-transplantation.
# In a fourth series of experiments, F1 mice were irradiated (750 cGy), reconstituted with syngeneic bone marrow, and injected intravenously 24 hours later with 1 mg per mouse of synthetic peptides derived from casein representing amino acids 1-22 of the N terminus of αS1 casein. In addition, 2 (two) groups of mice were treated each with a natural fraction of αS1 casein position 1-23, and a fraction of peptides derived from natural κ-casein, representing amino acid coordinates 106-169 of κ-casein (SEQ ID NO: 27). WBC counts were conducted on days 5, 7, 10 and 12 post-transplantation.
# [4] = tested on: female C57B⅙j mice fed an atherogenic diet; experiment: Diet-induced hypercholesterol/hyperlipidemia in mice; format: in vivo; conditions: one week post 1 mg i.p.; for HDL: diet control 54.5; for LDL: diet control 326; for Total cholesterol (TC): diet control 393
# Protocol: The ability of synthetic casein derived peptides to reduce cholesterol levels in 7-week old female C57B⅙j mice was assessed after feeding an atherogenic diet. The mice were divided into groups of 8. One control group was fed a normal diet. A second control group was fed the modified Thomas Hartroft diet containing cholate (#TD 88051: Teklad, Madison, Wis.) [Gerber, D. W. et al., Journal of Lipid Research. 42, 2001]. The remaining experimental groups were all fed the modified Thomas Hartroft diet.
# Cholestrol blood levels were determined according to Roche Cholesterol Assay based on Roeschlou & Allin enzymatic method (Roche, Inc., Germany).
# [5] = tested on: HIV-1 (CEM lymphocyte cells); experiment: Inhibition of HIV-1 infection of CEM lymphocytes; format: cell-based; conditions: for HIV-1 infection level, HIV-P24 antigen: 7 days post infection, control 0.52; for Cell counts: virus pre-treated 3 hours, infected control 1.06×10^6
# Protocol: Peptides: Peptides [either peptides derived from natural casein or synthetic peptides derived from casein (2-26 amino acids in length, see table 3)] supplied as lyophilized powder were resuspended in RPMI complete medium and added to cell cultures at a final concentrations of 50 to 1000 μg per ml.
# Cells: Several types of freshly isolated human cells (primary cells) and cell lines are known to be susceptible to in vitro HIV-1 infection, although essentially any cell displaying even low surface levels of the CD4 molecule can be considered a potential target for HIV-1 infection. Two commonly used human cell lines which are highly sensitive for HIV-1 infection were chosen, CEM and Sup-T1.
# CEM is a human T4-lymphoblastoid cell line initially derived by G. E. Foley et al. [(1965), Cancer 18:522] from peripheral blood buffy coat of a person with acute lymphoblastic leukemia. These cells were continuously maintained in suspension in medium, and have been used widely for analysis of infectivity, antiviral agents and neutralizing antibodies.
# Virus: The HIV virus strain employed was HIV-1IIIB, originally designated HTLV-IIIB. Concentrated culture fluids of peripheral blood from several patients with AIDS or related diseases were used to establish a permanent productive infection in H-9 cells. This subtype B virus has high capacity to replicate in human T-cell lines. Viral titer was 5.38 ng per ml in stock solution.
# HIV-1 P^24 antigen capture assay: An HIV-1 P^24 Antigen capture assay kit employed was designed to quantitate the HIV-1 P^24 core antigen, which is proportionally related to the degree of viral production in cells. This kit was purchased from the AIDS Vaccine program of the SAIC-NCI-Frederick Cancer Research Institute, P.O. Box B, Frederick, Md. 21702, USA and included 96 well plates coated with monoclonal antibody to HIV-1 P^24, primary antibody-rabbit anti-HIV P^24 serum, secondary antibody-Goat anti-rabbit-IgG (H+L) peroxidase conjugated antibody, TMB peroxidase substrate system and lysed HIV-1 P^24 standard. The HIV-1 P^24 antigen capture assay was analyzed by Organon-Technica ELISA reader at 450 nm with a reference at 650 nm.
# HIV-1 P^24 antigen capture ELISA: HIV infection was measured with an indirect enzyme immunoassay which detects HIV-1 P^24 core antigens in tissue culture media. Tissue culture supernatant was reacted with primary rabbit anti-HIV-1 P^24 antigen and visualized by peroxidase conjugated goat anti rabbit IgG. The reaction was terminated by adding 4N H2SO4, wherein the intensity of the color developed is proportional to the amount of HIV-1 antigen present in the tissue culture supernatant.
# HIV infection of human cultured CD4 cells: For longer incubations, the cells (CEM, Sup-T1) were preincubated with several increasing concentrations of peptides derived from natural casein (50-1000 μg per ml) or synthetic peptides derived from casein (10-500 μg per ml) for 24 (for synthetic and natural peptides) and 48 (only for natural peptides) hours and HIV-1IIIB (45 pg per ml final concentration) was added to each well thereafter. For the shorter incubations (3 hours), HIV-1IIIB was preincubated with the peptides for 3 hours and then added to cells (5000 cells/well) in tissue culture plates. Controls were IF (Infected, cells cultured with HIV-1 and without peptides), UIF (Uninfected, cells cultured without HIV-1 and without peptides) and UIF +Ch (Uninfected+peptides derived from natural casein, cells cultured in the presence of peptides derived from natural casein {50-1000 μg per ml}) to test the effect of peptides derived from natural casein and synthetic peptides derived from casein on cell viability and growth. Cells were counted for viability and proliferation rate on day 7, 10 and day 14 post infection (the day of P^24 antigen culture supernatant harvest). Cells and tissue culture supernatants (media) were harvested and lysed immediately in 1/10 volume of 10% Triton X-100. […]
# [6] = 800 cGy, 1.0 mg i.p. daily, days 4-7
substance,measurement,setting,value
"RPKHPIKHQGLPQEVLNENLL [synthetic peptide, N-terminal 21 amino acids of αS1 casein]",IPGT TEST 60 min. post load plasma glucose,[1],138 mg/dL
same,Healthy/Total (sugar not detected in urine),[2],2/5
same,Urine Sugar,[2],Negative
"RPKHPIKHQGLPQEV [C, synthetic peptide, N-terminal 15 amino acids of αS1 casein]","peripheral white blood cell counts, day 10","[3]; BALB/c, 600 cGy, 1 mg per mouse intraperitoneal, control 1.67",1.72 ×10^6 cells per ml
same,"peripheral white blood cell counts, day 12","[3]; BALB/c, 600 cGy, 1 mg per mouse intraperitoneal, control 4.64",6.54 ×10^6 cells per ml
"RPKHPIKHQG [1a, synthetic peptide, N-terminal 10 amino acids of αS1 casein]",IPGT TEST 60 min. post load plasma glucose,[1],106 mg/dL
same,IPGT TEST 0 min. (pre-load) plasma glucose,[1],88 mg/dL
same,Healthy/Total (sugar not detected in urine),[2],1/5
same,Urine Sugar,[2],Negative
"RPKHPIKHQGLPQEVLNENLLRF [synthetic peptide, N-terminal 23 amino acids of αS1 casein]",IPGT TEST 60 min. post load plasma glucose,[1],143 mg/dL
same,Healthy/Total (sugar not detected in urine),[2],2/5
same,Urine Sugar,[2],Negative
"RPKHPIKHQGLPQE [B, synthetic peptide, N-terminal 14 amino acids of αS1 casein]",IPGT TEST 0 min. (pre-load) plasma glucose,[1],130 mg/dL
same,Healthy/Total (sugar not detected in urine),[2],2/5
same,Urine Sugar,[2],Negative
"RPKHP [3P, synthetic peptide, N-terminal 5 amino acids of αS1 casein]",HDL,[4],42.5 mg/dL
same,LDL,[4],247 mg/dL
same,Total cholesterol (TC),[4],308 mg/dL
same,"HIV-1 infection level, HIV-P24 antigen",[5]; 10 μg per ml,0.26 ng P^24 Ag per ml
same,Cell counts,[5]; 10 μg per ml,1.17×10^6
same,"HIV-1 infection level, HIV-P24 antigen",[5]; 25 μg per ml,0.18 ng P^24 Ag per ml
same,Cell counts,[5]; 25 μg per ml,1.26×10^6
α-S1 1-23: gel filtration fraction of natural casein peptides: amino acid positions 1-23 of the N-terminus of αS1 casein (SEQ ID NO: 22) (RPKHPIKHQGLPQEVLNENLLRF),white blood cell reconstitution (in words),[3],dramatic enhancement
"RPKHPIKH [Y, synthetic peptide, N-terminal 8 amino acids of αS1 casein]",IPGT TEST 60 min. post load plasma glucose,[1],138 mg/dL
same,IPGT TEST 0 min. (pre-load) plasma glucose,[1],121 mg/dL
same,Healthy/Total (sugar not detected in urine),[2],1/5
same,Urine Sugar,[2],Negative
"RPKHPIKHQGLP [3a, synthetic peptide, N-terminal 12 amino acids of αS1 casein]","increase in platelet counts over control, 10 days post transplantation",[3]; [6],up to 35.5%
same,"increase in platelet counts over control, 12 days post transplantation",[3]; [6],up to 13.5%
same,"platelet counts, 12 days post transplantation",[3]; [6],622000 mL⁻¹
same,"platelet counts, 10 days post transplantation","[3]; 800 cGy, 1.0 mg i.p. daily, days 4-7, control 169",229000 mL⁻¹
same,prevention of glucosuria (in words),[2],highly effective
same,Healthy/Total (sugar not detected in urine),[2],3/5
same,Urine Sugar,[2],Negative
"RPKHPIKHQGL [2a, synthetic peptide, N-terminal 11 amino acids of αS1 casein]",HDL,[4],41 mg/dL
same,LDL,[4],221 mg/dL
same,Total cholesterol (TC),[4],279 mg/dL
same,prevention of glucosuria (in words),[2],highly effective
same,Healthy/Total (sugar not detected in urine),[2],4/5
same,Urine Sugar,[2],Negative
"RPKHPIKHQGLPQEVL [D, synthetic peptide, N-terminal 16 amino acids of αS1 casein]",Healthy/Total (sugar not detected in urine),[2],2/5
same,Urine Sugar,[2],Negative
"RPKHPIKHQGLPQ [A, synthetic peptide, N-terminal 13 amino acids of αS1 casein]",Healthy/Total (sugar not detected in urine),[2],2/5
same,Urine Sugar,[2],Negative
κ-casein (106-169): gel filtration fraction comprising a peptide representing amino acid positions 106-169 of κ-casein,white blood cell reconstitution (in words),[3],dramatic enhancement
